Results from US11059784B2, “Oxime ether compounds” (BRISTOL-MYERS SQUIBB COMPANY, priority 2017, dated 2021).

Legend:
blood lymphocytes [1] = experiment: Blood Lymphocyte Reduction (BLR) assay in rodent; type: in vivo, Lewis rats; conditions: 24 hr post-dose, Table B study; for Percent reduction vs. control: hydrochloride
Procedure: Blood Lymphocyte Reduction (BLR) assay in rodent:
Lewis rats were dosed orally with vehicle alone (polyethylene glycol 300, “PEG300”) or with the comparative compound 2-amino-2-[2-(4-octylphenyl)ethyl]-1,3-propanediol, hydrochloride (“FTY” CAS: […]) as a solution in the vehicle at doses of 0.1 mg/kg, 0.5 mg/kg and 3.0 mg/kg. The results are provided in Table Band the level of lymphocyte reduction at 24 hours post-dose was maximal at 3.0 mg/kg. The percent reduction in lymphocytes is dose-related but the relationship is not linear, with non-proportional increases in dose being required to elicit sequentially greater reductions in lymphocyte counts.

[2] = Pulmonary Toxicity Assay (bronchoalveolar lavage protein); type: in vivo, rats; conditions: 24 hr post-dose
Procedure: The analysis of protein levels in bronchoalveolar lavage (BAL) fluid obtained from an animal were used to gauge pulmonary side effects. Increased levels of protein in BAL fluid were indicative of undesired edematous pulmonary effects, such as pulmonary edema.
Example 3 was administered orally to rats at doses of 0.3, 1.0, 10, 30 mg/kg and 2-amino-2-[2-(4-octylphenyl)ethyl]-1,3-propanediol, hydrochloride (CAS: 162359-56-0) was administered at 3.0 mg/kg as a solution in the vehicle. At 24 hours post dose, the rats were then euthanized by barbiturate overdose. The trachea was exposed by incision of the overlying skin and then cannulated. The lungs were lavaged with 4 mL of saline. The recovered lavage fluid was assayed for total protein content. The concentration of the BAL protein in the recovered BAL fluid was determined on an Advia 1800 Chemistry Analyzer (Siemens Healthcare Diagnostics). The results represent the average results of all animals within each treatment group (n=2-4).

blood lymphocytes [3] = experiment: Blood Lymphocyte Reduction (BLR) assay in rodent; type: in vivo, Lewis rats; conditions: 24 hr post-dose; for Percent reduction vs. vehicle control: Table C study
S1P1 [4] = target: T1, S1P1 (Homo sapiens (Human), UniProt P21453); experiment: S1P1 Binding Assay (33P-S1P ligand competition, CHO membranes); conditions: membranes from CHO cells expressing human S1P1
T1 sequence (P21453 whole entry): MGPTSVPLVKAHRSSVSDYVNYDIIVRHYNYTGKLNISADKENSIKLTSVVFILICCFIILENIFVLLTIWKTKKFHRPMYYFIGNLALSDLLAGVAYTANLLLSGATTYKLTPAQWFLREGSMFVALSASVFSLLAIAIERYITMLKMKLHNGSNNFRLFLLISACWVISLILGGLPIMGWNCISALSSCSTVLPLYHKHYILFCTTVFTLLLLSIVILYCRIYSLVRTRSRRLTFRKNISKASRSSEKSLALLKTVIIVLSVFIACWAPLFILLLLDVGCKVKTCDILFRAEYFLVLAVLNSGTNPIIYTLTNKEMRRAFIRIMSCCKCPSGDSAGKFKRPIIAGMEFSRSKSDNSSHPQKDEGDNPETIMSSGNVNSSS
Procedure: Membranes were prepared from CHO cells expressing human S1P1. Cells pellets (1×10^9 cells/pellet) were suspended in buffer containing 20 mM HEPES (4-(2-hydroxyethyl)-1-piperazineethanesulfonic acid), pH 7.5, 50 mM NaCl, 2 mM EDTA (ethylenediamine tetraacetic acid) and Protease Inhibitor cocktail (Roche), and disrupted on ice using the Polytron homogenizer. The homogenate was centrifuged at 20,000 rpm (48,000 g) and the supernatant was discarded. The membrane pellets were resuspended in buffer containing 50 mM HEPES, pH 7.5, 100 mM NaCl, 1 mM MgCl2, 2 mM EDTA and stored in aliquots at −80° C. after protein concentration determination.
Membranes (2 μg/well) and 0.03 nM final concentration of ^33P-S1P ligand (1 mCi/ml, Perkin Elmer or American Radiolabeled Chemicals) diluted in assay buffer (50 mM HEPES, pH7.4, 5 mM MgCl2, 1 mM CaCl2), 0.5% fatty acid free BSA (bovine serum albumin), 1 mM NaF) were added to the compound plates (384 Falcon v-bottom plate (0.5 μl/well in a 11 point, 3-fold dilution). Binding was performed for 45 minutes at room temperature, terminated by collecting the membranes onto 384-well Millipore FB filter plates, and radioactivity was measured by TOPCOUNT®. The competition data of the test compounds over a range of concentrations was plotted as percentage inhibition of radioligand specific binding. The IC50 is defined as the concentration of competing ligand needed to reduce specific binding by 50%.

S1P1 [5] = target: T1, S1P1; experiment: Receptor [35S] GTPγS Binding Assay, S1P1; type: biochemical; conditions: membranes from S1P1/CHO cells
Procedure: (§1) Receptor [^35S] GTPγS Binding Assays:
(§2) Compounds were loaded in a 384 Falcon v-bottom plate (0.5 μl/well in an 11 point, 3-fold dilution). Membranes prepared from S1P1/CHO cells or EDG3-Gal5-bla HEK293T cells (EDG3 equivalent S1P3) were added to the compound plate ([…], final protein 3 μg/well) with MULTIDROP®. [^35S]GTP (1250 Ci/mmol, Perkin Elmer) was diluted in assay buffer: 20 mM HEPES, pH7.5, 10 mM MgCl2, 150 mM NaCl, 1 mM EGTA (ethylene glycol tetraacetic acid), 1 mM DTT (Dithiothreitol), 10 μM GDP, 0.1% fatty acid free BSA, and 10 μg/ml Saponin to 0.4 nM. 40 μl of the [35S] GTP solution was added to the compound plate with a final concentration of 0.2 nM. The reaction was kept at room temperature for 45 min. At the end of incubation, all the mixtures in the compound plate were transferred to Millipore 384-well FB filter plates via the VELOCITY11 ® Vprep liquid handler. The filter plate was washed with water 4 times by using the manifold Embla plate washer and dried at 60° C. for 45 min. MicroScint 20 scintillation fluid (30 μl) was added to each well for counting on the Packard TOPCOUNT®. EC50 is defined as the agonist concentration that corresponds to 50% of the Ymax (maximal response) obtained for each individual compound tested.
A smaller value for GTPγS S1P1 EC50 value indicated greater activity for the compound in the GTPγS S1P1 binding assay. Thus the compounds of the present invention may be used in treating, preventing, or curing various S1P1 receptor-related conditions. The compounds have potential use in treating, preventing, or curing autoimmune and inflammatory diseases such as multiple sclerosis, rheumatoid arthritis, inflammatory bowel disease, lupus, psoriasis, or minimizing or reducing rejection of transplanted organs.

S1P3 = S1P3 (Homo sapiens (Human), UniProt Q99500); experiment: Receptor [35S] GTPγS Binding Assay, S1P3; type: biochemical; conditions: membranes from EDG3-Gal5-bla HEK293T cells
Chain of S1P3 (Q99500 whole entry): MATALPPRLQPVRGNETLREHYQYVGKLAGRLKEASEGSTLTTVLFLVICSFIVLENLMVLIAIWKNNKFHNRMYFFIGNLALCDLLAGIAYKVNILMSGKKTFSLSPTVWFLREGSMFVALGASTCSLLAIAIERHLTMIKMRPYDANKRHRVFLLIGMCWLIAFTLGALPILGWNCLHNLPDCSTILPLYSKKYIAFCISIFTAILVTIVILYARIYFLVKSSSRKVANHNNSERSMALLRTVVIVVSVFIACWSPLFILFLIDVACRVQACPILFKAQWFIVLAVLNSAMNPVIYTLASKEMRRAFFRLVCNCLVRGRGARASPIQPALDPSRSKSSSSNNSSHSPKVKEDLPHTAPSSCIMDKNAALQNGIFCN
Procedure: as §1, §2

In the case of `CCCCCCCCc1ccc(CCC(N)(CO)CO)cc1.Cl` [FTY, 2-amino-2-[2-(4-octylphenyl)ethyl]-1,3-propanediol, hydrochloride], the “Rat Blood Lymphocyte Reduction Assay, Compound Mean” value (blood lymphocytes [1]; 0.1 mg/kg oral) is reported as 2.78, the “Percent reduction vs. control” value (blood lymphocytes [1]; 0.1 mg/kg oral) is reported as 69% and the “Percent reduction vs. control” value (blood lymphocytes [1]; 0.1 mg/kg oral, listed as 2-amino-2-[2-(4-octylphenl)pethyl]-1,3-propanediol) is reported as 69%. The “Rat Blood Lymphocyte Reduction Assay, Compound Mean” value (blood lymphocytes [1]; 0.5 mg/kg oral) was 1.64, the “Percent reduction vs. control” value (blood lymphocytes [1]; 0.5 mg/kg oral) was 82% and the “Percent reduction vs. control” value (blood lymphocytes [1]; 0.5 mg/kg oral, listed as 2-amino-2-[2-(4-octylphenl)pethyl]-1,3-propanediol) was 82%. The “Rat Blood Lymphocyte Reduction Assay, Compound Mean” value (blood lymphocytes [1]; 3.0 mg/kg oral) was 1.02, the “Percent reduction vs. control” value (blood lymphocytes [1]; 3.0 mg/kg oral) was 89% and the “Percent reduction vs. control” value (blood lymphocytes [1]; 3.0 mg/kg oral, listed as 2-amino-2-[2-(4-octylphenl)pethyl]-1,3-propanediol) was 89%. The “Relative BAL protein vs. control” value ([2]; 3 mg/kg oral) was 1.8 and the “Percent reduction vs. vehicle control” value (blood lymphocytes [3]; 3 mg/kg) was 87%.
In the case of `CC/C(=N\OCCCc1ccccc1)c1ccc(C(=O)N2CCC(N)(COP(=O)(O)O)C2)cc1` (single isomer, unassigned) [Example 63, (E)-(3-amino-1-(4-(1-((3-phenylpropoxy)imino)propyl)benzoyl)pyrrolidin-3-yl) methyl dihydrogen phosphate], the IC50 (S1P1 [4]) is reported as 183 nM, the EC50 (S1P1 [5]) is reported as 342 nM and the EC50 (S1P3) is reported as greater than 6250 nM.
`NC1(COP(=O)(O)O)CCN(C(=O)c2ccc(/C(=N/OCCCc3ccccc3)C(F)(F)F)cc2)C1` (centres unmarked) [Example 65, (Z)-(3-amino-1-(4-(2,2,2-trifluoro-1-((3-phenylpropoxy)imino)ethyl)benzoyl)pyrrolidin-3-yl)methyl dihydrogen phosphate] gave an IC50 (S1P1 [4]) of 1990 nM, an EC50 (S1P1 [5]) of 626 nM and an EC50 (S1P3) greater than 6250 nM.
Work on `COc1cccc(CO/N=C(\C)c2ccc([C@@H]3CC[C@](N)(COP(=O)(O)O)C3)cc2)c1` [Example 50, ((1R,3R)-1-amino-3-(4-((E)-1-(((3-methoxybenzyl)oxy)imino)ethyl)phenyl)cyclopentyl) methyl dihydrogen phosphate] yielded an IC50 (S1P1 [4]) of 563 nM, an EC50 (S1P1 [5]) of 630 nM and an EC50 (S1P3) greater than 60000 nM.
In the case of `C/C(=N\OCCCc1ccccc1)c1ccc(S(=O)(=O)N2CCC(N)(COP(=O)(O)O)CC2)cc1` [Example 71, (E)-(4-amino-1-((4-(1-((3-phenylpropoxy)imino)ethyl)phenyl)sulfonyl)piperidin-4-yl)methyl dihydrogen phosphate], the IC50 (S1P1 [4]) is reported as 219 nM, the EC50 (S1P1 [5]) is reported as 242 nM and the EC50 (S1P3) is reported as greater than 18000 nM.
`CC(=NOCc1ccc(C(F)(F)F)cc1)c1ccc([C@@H]2CC[C@](N)(COP(=O)(O)O)C2)cc1` [Example 45, ((1R,3R)-1-amino-3-(4-(1-(((4-(trifluoromethyl)benzyl)oxy)imino)ethyl)phenyl)cyclopentyl)methyl dihydrogen phosphate] gave an IC50 (S1P1 [4]) of 2.7 nM, an EC50 (S1P1 [5]) of 5.6 nM and an EC50 (S1P3) greater than 60000 nM.
With `CC(=NOCCc1ccccc1)c1ccc(C2CCC(N)(CO)C2)cc1.Cl` (centres unmarked) [Example 3, 1-(4-(3-amino-3-(hydroxymethyl)cyclopentyl)phenyl)ethanone O-phenethyl Oxime] the “Relative BAL protein vs. control” value ([2]; 0.3 mg/kg oral) was 0.8, the “Relative BAL protein vs. control” value ([2]; 1 mg/kg oral) was 0.8 and the “Relative BAL protein vs. control” value ([2]; 10 mg/kg oral) was 1.2. For the same compound, the “Relative BAL protein vs. control” value ([2]; 30 mg/kg oral) was 1.3, the “Percent reduction vs. vehicle control” value (blood lymphocytes [3]; 0.3 mg/kg) was 29% and the “Percent reduction vs. vehicle control” value (blood lymphocytes [3]; 1 mg/kg) was 62%. For the same compound, the “level of lymphocyte reduction (in words)” value (blood lymphocytes [3]; 10 mg/kg and 30 mg/kg) was “maximal level of lymphocyte reduction comparable to the reduction shown by FTY”, the “Percent reduction vs. vehicle control” value (blood lymphocytes [3]; 10 mg/kg) was 85% and the “Percent reduction vs. vehicle control” value (blood lymphocytes [3]; 30 mg/kg) was 85%.
Compound `CC(=NOCCOc1ccccc1)c1ccc([C@@H]2CC[C@](N)(COP(=O)(O)O)C2)cc1` [Example 46, ((1R,3R)-1-amino-3-(4-(1-((2-phenoxyethoxy)imino)ethyl)phenyl)cyclopentyl) methyl dihydrogen phosphate] has an IC50 (S1P1 [4]) of 5.2 nM, an EC50 (S1P1 [5]) of 11.2 nM and an EC50 (S1P3) greater than 60000 nM.
Compound `C/C(=N\OCCc1ccccc1)c1ccc([C@@H]2CC[C@](N)(COP(=O)(O)O)C2)cc1` [Example 72, ((1R,3R)-1-amino-3-(4-((E)-1-(phenethoxyimino)ethyl)phenyl)cyclopentyl)methyl dihydrogen phosphate] has an IC50 (S1P1 [4]) of 61.6 nM, an EC50 (S1P1 [5]) of 91.5 nM and an EC50 (S1P3) greater than 30000 nM.
`CC(=NOCCCc1ccccc1)c1ccc([C@H]2CC[C@](N)(COP(=O)(O)O)C2)cc1` [Example 52] gave an IC50 (S1P1 [4]) of 31.9 nM, an EC50 (S1P1 [5]) of 1.1 nM and an EC50 (S1P3) greater than 30000 nM.
With `C/C(=N\OCCCc1ccccc1)c1ccc(C(=O)N2CCCC(N)(COP(=O)(O)O)C2)cc1` (single isomer, unassigned) [Example 68, (E)-(3-amino-1-(4-(1-((3-phenylpropoxy)imino)ethyl)benzoyl)piperidin-3-yl)methyl dihydrogen phosphate] the IC50 (S1P1 [4]) was 362 nM, the EC50 (S1P1 [5]) was 399 nM and the EC50 (S1P3) was 9370 nM.
`C/C(=N\OCCCc1ccccc1)c1ccc(C(=O)N2CCC(N)(COP(=O)(O)O)C2)cc1` (single isomer, unassigned) [Example 61, (E)-(3-amino-1-(4-(1-((3-phenylpropoxy)imino)ethyl)benzoyl)pyrrolidin-3-yl)methyl dihydrogen phosphate] gave an IC50 (S1P1 [4]) of 126 nM, an EC50 (S1P1 [5]) of 204 nM and an EC50 (S1P3) greater than 6250 nM.
For `C/C(=N\OCc1ccc(C2CCCCC2)c(C(F)(F)F)c1)c1ccc(C(=O)N2CCC(N)(COP(=O)(O)O)C2)cc1` (single isomer, unassigned) [Example 59, (E)-(3-amino-1-(4-(1-(((4-cyclohexyl-3-(trifluoromethyl)benzyl)oxy)imino)ethyl)benzoyl)pyrrolidin-3-yl)methyl dihydrogen phosphate], the IC50 (S1P1 [4]) was 10.5 nM, the EC50 (S1P1 [5]) was 136 nM and the EC50 (S1P3) was greater than 3130 nM.
